Several values for one entry are separate records, joined by “and”; a condition that tells them apart may be missing. Equal entries are not always repeated.
Assays:
morphine analgesia = test: Increase in analgesia of morphine, Tail Flick Test (Experiment 1); assay type: in vivo, rats; conditions: for percentage variation of latency of pain sensation / M (10-90) ± SE, mean percentage variation of latency: compound 10 mg/kg i.p. + morphine 2 mg/kg; for M (10-90) ± SE, mean percentage variation of latency: mean 10-90 min; for Power ratio with respect to morphine alone: rat, in vivo
In short: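 Non-fasted male rats (150-200 g); a tail point is exposed to a 75 °C heat source and latency to tail movement recorded, 8 s cut-off. Readings taken before and 10, 20, 30, 45, 60 and 90 min after analgesic treatment; percentage variation calculated per animal.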

[1] = test system: CCK-8 induced contraction of guinea pig gall bladder; test: Anti-CCK activity on gall bladder strips in vitro; conditions: CCK-8 10 ng/ml
In short: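 Longitudinal guinea pig gall bladder strips in Krebs at 32 °C, gassed with O2/CO2 95:5, were contracted with 10 ng/ml CCK-8. Isometric force was recorded across several compound concentrations, and ED50 was taken as the μg/ml concentration antagonising 50% of the CCK contraction.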

[2] = test system: CCK-8 induced contraction of guinea pig gall bladder; test: Anti-CCK-8 activity on gall bladders in situ; assay type: in vivo; conditions: for percentage inhibition of contracting effect of CCK-8: single experiments; for ED50: Cavia porcellus, iv, CCK-8 10 ng/kg i.v., read-out: ED50 (inhibition of 50% of contracting effect of CCK-8)
Protocol: In order to confirm the evidence of the studies in vitro several of the more interesting compounds were tested in vivo on guinea pig gall baldders in situ.
The method used is that described by Ljungberg (Svensk. Farm. Tidskr. 68, 351-354, 1964).
Guinea pigs having a weight of about 400 g, anaesthetised with urethane, were used; the substances under examination were administered intraveneously into the jugular vein.
The responses of the gall bladders to the substances under test were detected by means of a force transducer and recorded by means of a microdynamometer. The optimum contracting dose was chosen as 10 ng/kg of CCK-8. The antagonist compounds tested were administered in increasing doses so as to enable the calculation of an ED50 value, that is in the dose (in mg/kg i.v.) capable of inhibiting 50% of the contracting effect of 10 ng/kg i.v. of CCK-8.
The results obtained are given in Table 7 below, which gives the doses used and the effects obtained expressed as a percentage inhibition of the contracting effect of CCK-8 as well as the ED50 found.

[3] = test system: intestinal transit of carbon; test: Anti-spastic activity, vegetable carbon intestinal transit test; assay type: in vivo, mice; conditions: Mus musculus, ip; read-out: antispastic activity ED50 (dose reducing intestinal transit of carbon by 50%)
Source text: The anti-spastic activity which the present compounds exert on the entire digestive system is also notable. Measured in mice with the vegetable carbon test (rate of transit through the stomach and the intestine), this activity is illustrated in the following table.
claimed administered intraperitoneally in mice. Values
expressed as the ED 50 in mg/kg, that is the dose which
reduces the intestinal transit of carbon by 50%

[4] = test system: CCK-8 induced contraction of rabbit colon; test: Anti-spastic activity in the colon stimulated by CCK-8; assay type: in vivo
Protocol: A much more specific anti-spastic activity, that is adhering much more to a physiological situation, is illustrated by the following experiment.
The abdomen of an anaesthetised rabbit was cut open to show the transverse colon. A small balloon full of water was inserted at the point established and connected to a pressure transducer by means of a polythene cannula filled with water.
The optimum sensitivity was fixed in relation to the physiological conditions and the products were administered through the femoral vein. Contractions were induced by the administration of 100 ng/kg of CCK.

biliary flow = test: Biliary flow (choleretic activity); assay type: in vivo, rat; conditions: for ED50: Rattus norvegicus, iv, average over 2 hours, read-out: ED50 (dose causing 50% increase in biliary flow)
Protocol: The following experiment was carried out: a cannula was inserted in the bile duct of a rat anaesthetised with urethane, together with a small needle connected to a polythene tube, and the bile liquid was thus collected. The collection was carried out for one hour before the intravenous administration of the tested compounds and for a further two hours after administration, the samples collected at 30 minute intervals being weighed.
In order to prevent possible dehydration of the animals, 0.5 ml of physiological solution was administered at 30 minute intervals up to a total of 3 ml.

normal pancreatic cells = test: Trophic action of CCK-8 on normal pancreas; assay type: in vivo, hamsters; conditions: CCK-8 10 mcg/kg 3 times per day
Source text: (§1) The anti-cholecystokinin effect of the most powerful of the compounds which are the subject of the present invention, that is the compound C-7, on the trophic activity of CCK on normal pancreatic cells and on those of a pancreatic adenocarcinoma is to be studied.
(§2) Male hamsters were inoculated in the cheek pouches with a suspension of 1×10^5 tumoral cells of a pancreatic adenocarcinoma. Five days after the inoculation the animals were divided at random into 4 groups of 10 animals each, that is, a control group, a group of animals treated with 10 μg/kg of CCK-8 three times a day, a group of animals treated with 5 mg/kg i.p. of compound C-7 three times a day, and a fourth group treated simultaneously with the compound C-7 and CCK-8 in the manner described above.
(§3) After 15 days of this treatment, the animals were killed, and the normal pancreas and the inoculated pancreatic tumours in the cheek pouches were collected and weighed. The DNA was extracted and measured according to conventional techniques.
(§4) The results thus obtained are given in Table 13, expressed as mean values (±S.E.)

[5] = test system: pancreatic adenocarcinoma; assay type: in vivo, hamsters
Source text: as §1, §2, §3, §4

[6] = CCK-8 10 mcg/kg 3 times per day

Compound	percentage variation of latency of pain sensation (morphine analgesia; 10') [%]	percentage variation of latency of pain sensation (morphine analgesia; 20') [%]	percentage variation of latency of pain sensation (morphine analgesia; 30') [%]	percentage variation of latency of pain sensation (morphine analgesia; 45') [%]	percentage variation of latency of pain sensation (morphine analgesia; 60') [%]	percentage variation of latency of pain sensation (morphine analgesia; 90') [%]	M (10-90) ± SE, mean percentage variation of latency (morphine analgesia) [%]	Power ratio with respect to morphine alone (morphine analgesia)	ED50 (concentration antagonising 50% of contracting effect of CCK-8) [1] [µg/mL]	percentage inhibition of contracting effect of CCK-8 ([2]; 0.03 mg/kg i.v.)	percentage inhibition of contracting effect of CCK-8 ([2]; 1 mg/kg i.v.)	ED50 [2] [mg/kg]	ED50 [3] [mg/kg]	ED50 (biliary flow) [mg/kg]	also measured
CCCCN(CCCC)C(=O)C(CCC(=O)O)NC(=O)c1ccc(Cl)c(Cl)c1 (racemic) [Compound C-6, D,L-4-(3,4-dichloro-benzoyl-amino)-5-(di-n-butylamino)-5-oxo-pentanoic acid]	89.2	91.3 ± 8.7	83.6 ± 10.0	82.1 ± 16.6	79.8 ± 17.0	38.2	77.4 ± 19.6	2.59	0.33	-49.7% and -40.0%	-100.0%	0.05	29.5	4.2	percentage inhibition of contracting effect of CCK-8 ([2]; 0.01 mg/kg i.v.): -12.9%; block of gall bladder contractions induced by CCK-8 ([2]; 0.1 mg/kg): can block gall bladder contractions induced by CCK-8; effect on CCK-8 stimulated colon ([4]; 0.1 mg/kg iv, single experiments): 0; ED50 ([4]; Oryctolagus cuniculus, iv, CCK 100 ng/kg): 1.53 mg/kg; % increase in biliary flow with respect to controls (biliary flow; 3 mg/kg i.v.): +40.4%; % increase in biliary flow with respect to controls (biliary flow; 10 mg/kg i.v.): +69.8%; % increase in biliary flow with respect to controls (biliary flow; 30 mg/kg i.v.): +88.7%
CCCc1ccc(C(=O)NC(CCC(=O)O)C(=O)N(CCC)CCC)cc1 (stereo not shown) [Compound C-35]	39.9 ± 15	62.3 ± 23	13.7	63.2 ± 17	61.3 ± 20	28.8 ± 31	44.9 ± 21	1.51	367.1				181	29.5	% increase in biliary flow with respect to controls (biliary flow; 12.5 mg/kg i.v.): +9.6%; % increase in biliary flow with respect to controls (biliary flow; 25 mg/kg i.v.): +51.9%; % increase in biliary flow with respect to controls (biliary flow; 50 mg/kg i.v.): +91.9%; % increase in biliary flow with respect to controls (biliary flow; 100 mg/kg i.v.): +159.7%
CCCCCN(CCCCC)C(=O)C(CCC(=O)O)NC(=O)c1ccc(Cl)cc1 (stereo not shown) [Compound C-4]	44.6 ± 5.3	67.5 ± 13.4	66.3 ± 14.0	60.4 ± 16.3	59.8 ± 17.0	44.2 ± 14.8	57.1	1.92	1.1	-11.8%	-92.1% and -88.5%	0.3	38.8		
CCK-8: the biologically active component of the cholecystokinin hormone [reference compound]															Pancreas weight (normal pancreatic cells): 600 ± 54.1 mg; Pancreatic DNA (normal pancreatic cells): 1.5 ± 0.11 mg; TUMORAL DNA [5, 6]: 0.7 ± 0.13 mg; Weight of Pancreatic Carcinoma [5, 6]: 180 ± 15.2 mg; animals died during the treatment ([5]; CCK-8 10 mcg/kg 3 times per day, of 10): 2 animals; effect on growth of pancreatic adenocarcinoma / CCK-8 actions ([5]; hamster, in vivo): stimulates the growth of a pancreatic adenocarcinoma
